Numbered stars: 1 amine (or outer) side, 2 acyl side, 3 side chain; on linkers, the order of the positions; unused ones are H or OH. Bridge positions count the residues as written; N and C are the ends. Square brackets hold non-standard residues; d marks the D form. Side chains are listed from the residue outwards. Peptide text beside a SMILES is read from it. * marks the point of attachment. DOTA = O=C(O)CN1CCN(CC(=O)O)CCN(CC(=O)*)CCN(CC(=O)O)CC1; Phe(4-CF3) = N[C@@H](Cc1ccc(C(F)(F)F)cc1)C(=O)O; Phe(4-Cl) = N[C@@H](Cc1ccc(Cl)cc1)C(=O)O; Phe(3-F) = N[C@@H](Cc1cccc(F)c1)C(=O)O; Arg(Me) = CNC(=N)NCCC[C@H](N)C(=O)O; X1 = O=C(CC1CCN([*:1])CC1)[*:2]; Lys(Me) = CNCCCC[C@H](N)C(=O)O; NMeK = CN[C@@H](CCCCN)C(=O)O; Tle = CC(C)(C)[C@H](N)C(=O)O; Nle = CCCC[C@H](N)C(=O)O; Dap = NC[C@H](N)C(=O)O; Aib = CC(C)(N)C(=O)O; CO = O=C([*:1])[*:2]; Guanidino = N=C(N)N*
Tests used:
[1] = target: T1, PSMA-expressing C4-2 cells (Homo sapiens, UniProt Q04609); experiment: FACS binding assay (competition with 50 nM PSM-0183); conditions: pIC50 category of FACS binding, C4-2 cells; read-out: pIC50 [C4-2] CAT (converted)
T1 construct: PSMA-expressing C4-2 cells (ATCC, Cat. No. CRL-3314) were cultured in RPMI-1640; host or cells: C4-2 cells
T1 sequence (Q04609 whole entry): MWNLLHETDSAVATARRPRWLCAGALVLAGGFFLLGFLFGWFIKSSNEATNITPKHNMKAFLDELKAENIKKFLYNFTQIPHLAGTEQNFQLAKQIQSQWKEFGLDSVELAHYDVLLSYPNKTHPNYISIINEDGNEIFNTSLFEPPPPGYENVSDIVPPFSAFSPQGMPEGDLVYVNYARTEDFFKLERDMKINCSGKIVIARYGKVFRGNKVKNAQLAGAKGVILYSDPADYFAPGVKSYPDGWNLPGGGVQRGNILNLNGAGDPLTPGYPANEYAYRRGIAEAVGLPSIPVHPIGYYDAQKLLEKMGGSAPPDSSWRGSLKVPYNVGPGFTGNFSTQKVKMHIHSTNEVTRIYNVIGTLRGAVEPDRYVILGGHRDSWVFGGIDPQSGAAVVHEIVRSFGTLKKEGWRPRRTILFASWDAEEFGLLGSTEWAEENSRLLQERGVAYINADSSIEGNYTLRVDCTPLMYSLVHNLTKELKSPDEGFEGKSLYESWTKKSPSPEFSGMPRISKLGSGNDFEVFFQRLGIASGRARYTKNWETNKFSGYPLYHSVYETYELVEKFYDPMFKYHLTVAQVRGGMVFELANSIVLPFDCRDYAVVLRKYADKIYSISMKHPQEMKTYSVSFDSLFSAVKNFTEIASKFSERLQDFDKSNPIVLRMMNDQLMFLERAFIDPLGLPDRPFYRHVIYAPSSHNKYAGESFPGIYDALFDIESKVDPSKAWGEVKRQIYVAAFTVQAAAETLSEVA
Summary of the method: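 Competition format: fluorescent tracer PSM-0183 (50 nM) displaced from PSMA on C4-2 cells by a test compound titration over 1 h at 4 °C. Bound tracer was quantified as flow-cytometric AF488 median fluorescence after washing. Four-parameter logistic fits of MFI data gave IC50 and pIC50.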

[2] = target: T2, Fc-fusion protein of human PSMA (hPSMA-Fc) (Homo sapiens, UniProt Q04609); experiment: Surface plasmon resonance assay (Biacore T200, single cycle kinetic); type: binding; conditions: pKD category for PSMA SPR activity assay, hPSMA-Fc, 25° C.; read-out: pKD CAT (converted)
T2 construct: purchased Acro Biosystems PSA-H5264
T2 sequence (Q04609 44-750 limits assumed): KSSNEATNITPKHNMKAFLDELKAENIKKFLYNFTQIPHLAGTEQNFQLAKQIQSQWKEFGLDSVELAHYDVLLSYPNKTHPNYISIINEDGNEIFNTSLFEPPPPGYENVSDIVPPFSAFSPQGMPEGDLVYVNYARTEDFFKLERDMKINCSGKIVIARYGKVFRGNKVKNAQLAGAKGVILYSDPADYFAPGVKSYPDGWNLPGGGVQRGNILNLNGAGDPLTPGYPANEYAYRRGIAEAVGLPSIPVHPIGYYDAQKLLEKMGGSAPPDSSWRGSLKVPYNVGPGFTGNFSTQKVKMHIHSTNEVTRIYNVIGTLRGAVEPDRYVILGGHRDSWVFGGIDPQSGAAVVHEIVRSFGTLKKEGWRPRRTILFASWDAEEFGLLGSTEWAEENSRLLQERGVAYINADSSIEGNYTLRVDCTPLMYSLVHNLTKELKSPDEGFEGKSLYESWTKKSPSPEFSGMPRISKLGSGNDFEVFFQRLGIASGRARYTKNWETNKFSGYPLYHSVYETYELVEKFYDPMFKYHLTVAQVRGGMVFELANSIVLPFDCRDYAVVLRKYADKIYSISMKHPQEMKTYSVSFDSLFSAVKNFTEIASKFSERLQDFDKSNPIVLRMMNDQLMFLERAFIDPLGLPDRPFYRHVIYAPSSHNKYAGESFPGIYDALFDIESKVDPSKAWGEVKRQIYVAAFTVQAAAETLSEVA
Summary of the method: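 KD, expressed as pKD, came from 1:1 Langmuir fits of reference- and buffer-blank-subtracted SPR data. The runs were single-cycle kinetics at 25° C in HBST/0.1% DMSO over human PSMA-Fc, captured to ~1000 RU on a peptide-coated CM5 surface and regenerated with 10 mM glycine pH 1.5.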

CCCC[C@H](NC(=O)[C@@H]1CSSC[C@H](NC(=O)[C@H](Cc2ccccc2)NC(=O)[C@H](C)NC(=O)[C@@H](NC(C)=O)[C@@H](C)O)C(=O)N2CCC[C@H]2C(=O)N[C@@H](CCCNC(=N)N)C(=O)N[C@@H](C)C(=O)N[C@@H](CC(N)=O)C(=O)N1)C(=O)N[C@H](C(=O)N[C@@H](CC(=O)O)C(N)=O)[C@@H](C)O [PSM-0544, Ac-Thr-Als-Phe-[Cys-Pro-Arg-Ala-Asn-Cys]-Nle-Thr-Asp-NH2] (Ac-TAFCPRANC[Nle]TD-NH2; disulfide 4-9)
IC50 [1]: > 3160 nM | Kd [2]: > 501 nM

CC(=O)N[C@H](C(=O)NC(C)(C)C(=O)N[C@@H](Cc1ccccc1)C(=O)N[C@H]1CSSC[C@@H](C(=O)N[C@H](C(=O)N[C@H](C(N)=O)[C@@H](C)O)C(C)(C)C)NC(=O)[C@H](CC(C)C)NC(=O)C(C)(C)NC(=O)[C@H](CCCNC(=N)N)NC(=O)[C@H](CCCCN)NC1=O)[C@@H](C)O [PSM-0545, Ac-Thr-Aib-Phe-[Cys-Lys-Arg-Aib-Leu-Cys]-Tle-Thr-NH2] (Ac-T[Aib]FCKR[Aib]LC[Tle]T-NH2; disulfide 4-9)
IC50 [1]: < 200 nM | Kd [2]: < 12.6 nM

C[C@@H](O)[C@H](NC(=O)[C@@H](NC(=O)[C@@H]1CSSC[C@H](NC(=O)[C@H](Cc2ccc(Cl)cc2)NC(=O)C(C)(C)NC(=O)[C@@H](NC(=O)CC2CCN(C(=O)CN3CCN(CC(=O)O)CCN(CC(=O)O)CCN(CC(=O)O)CC3)CC2)[C@@H](C)O)C(=O)N[C@@H](CCCCN)C(=O)N[C@@H](CNC(=O)NC(=N)N)C(=O)NC(C)(C)C(=O)N[C@@H](CC(N)=O)C(=O)N1)C(C)(C)C)C(N)=O [PSM-0546, DOTA-Cmp-Thr-Aib-Pcf-[Cys-Lys-Urr-Aib-Asn-Cys]-Tle-Thr-NH2] ({DOTA}-[X1]T[Aib][Phe(4-Cl)]CK[Dap]([CO-Guanidino])[Aib]NC[Tle]T-NH2; disulfide 5-10)
IC50 [1]: < 200 nM | Kd [2]: < 12.6 nM

CCCC[C@H](NC(=O)[C@@H]1CSSC[C@H](NC(=O)[C@H](Cc2ccccc2)NC(=O)[C@@H]2CCCN2C(=O)[C@@H](NC(C)=O)[C@@H](C)O)C(=O)N[C@@H](CCCCN)C(=O)N[C@@H](CCCNC(=N)N)C(=O)N[C@@H](C)C(=O)N[C@@H](CC(N)=O)C(=O)N1)C(=O)N[C@H](C(=O)N[C@@H](CC(=O)O)C(N)=O)[C@@H](C)O [PSM-0547, Ac-Thr-Pro-Phe-[Cys-Lys-Arg-Ala-Asn-Cys]-Nle-Thr-Asp-NH2] (Ac-TPFCKRANC[Nle]TD-NH2; disulfide 4-9)
IC50 [1]: < 200 nM | Kd [2]: 12.6 to 126 nM

C[C@@H](O)[C@H](NC(=O)[C@@H](NC(=O)[C@@H]1CSSC[C@H](NC(=O)[C@H](Cc2ccc(Cl)cc2)NC(=O)C(C)(C)NC(=O)[C@@H](NC(=O)CC2CCN(C(=O)CN3CCN(CC(=O)O)CCN(CC(=O)O)CCN(CC(=O)O)CC3)CC2)[C@@H](C)O)C(=O)N(C)[C@@H](CCCCN)C(=O)N[C@@H](CCCNC(=N)N)C(=O)NC(C)(C)C(=O)N[C@@H](CC(N)=O)C(=O)N1)C(C)(C)C)C(N)=O [PSM-0548, DOTA-Cmp-Thr-Aib-Pcf-[Cys-Nmk-Arg-Aib-Asn-Cys]-Tle-Thr-NH2] ({DOTA}-[X1]T[Aib][Phe(4-Cl)]C[NMeK]R[Aib]NC[Tle]T-NH2; disulfide 5-10)
IC50 [1]: 200 to 1260 nM | Kd [2]: 12.6 to 126 nM

CNCCCC[C@@H]1NC(=O)[C@@H](NC(=O)[C@H](Cc2ccc(C(F)(F)F)cc2)NC(=O)C(C)(C)NC(=O)[C@@H](NC(=O)CC2CCN(C(=O)CN3CCN(CC(=O)O)CCN(CC(=O)O)CCN(CC(=O)O)CC3)CC2)[C@@H](C)O)CSSC[C@@H](C(=O)N[C@H](C(N)=O)C(C)(C)C)NC(=O)[C@H](CC(N)=O)NC(=O)C(C)(C)NC(=O)[C@H](CCCNC(=N)NC)NC1=O [PSM-0549, DOTA-Cmp-Thr-Aib-Ptf-[Cys-Lys(Me)-Arg(Me)-Aib-Ass-Cys]-Tle-NH2] ({DOTA}-[X1]T[Aib][Phe(4-CF3)]C[Lys(Me)][Arg(Me)][Aib]NC[Tle]-NH2; disulfide 5-10)
IC50 [1]: < 200 nM | Kd [2]: 12.6 to 126 nM

CC(=O)N[C@H](C(=O)NC(C)(C)C(=O)N[C@@H](Cc1ccc(C(F)(F)F)cc1)C(=O)N[C@H]1CSSC[C@@H](C(=O)N[C@H](C(=O)N[C@H](C(N)=O)[C@@H](C)O)C(C)(C)C)NC(=O)[C@H](CC(N)=O)NC(=O)C(C)(C)NC(=O)[C@H](CCCNC(=N)N)NC(=O)[C@H](CCCCN)NC1=O)[C@@H](C)O [PSM-0550, Ac-Thr-Aib-Ptf-[Cys-Lys-Arg-Aib-Asn-Cys]-Tle-Thr-NH2] (Ac-T[Aib][Phe(4-CF3)]CKR[Aib]NC[Tle]T-NH2; disulfide 4-9)
IC50 [1]: < 200 nM | Kd [2]: < 12.6 nM

CC(=O)N[C@H](C(=O)NC(C)(C)C(=O)N[C@@H](Cc1cccc(F)c1)C(=O)N[C@H]1CSSC[C@@H](C(=O)N[C@H](C(=O)N[C@H](C(N)=O)[C@@H](C)O)C(C)(C)C)NC(=O)[C@H](CC(N)=O)NC(=O)C(C)(C)NC(=O)[C@H](CCCNC(=N)N)NC(=O)[C@H](CCCCN)NC1=O)[C@@H](C)O [PSM-0551, Ac-Thr-Aib-Mff-[Cys-Lys-Arg-Aib-Asn-Cys]-Tle-Thr-NH2] (Ac-T[Aib][Phe(3-F)]CKR[Aib]NC[Tle]T-NH2; disulfide 4-9)
IC50 [1]: < 200 nM | Kd [2]: < 12.6 nM
